In PubChem BioAssay (NCI):
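Dose response: 5 concentrations. Exposure: 48 h. Format: 96-well plates. Endpoint: linear interpolation; highest concentration if not reached. GI50 = concentration required for 50% inhibition of growth. At the TGI there is no net growth.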

What was measured:
Test in all cases: NCI-60 cell line screen, 48 h
[1] = tested on: PC-3 prostate
[2] = tested on: RXF 393 renal
[3] = tested on: SK-OV-3 ovarian
[4] = tested on: HS 578T breast
[5] = tested on: HL-60(TB) leukemia
[6] = tested on: MDA-MB-435
[7] = tested on: NCI/ADR-RES ovarian
[8] = tested on: SNB-75 CNS
[9] = tested on: COLO 205 colon
[10] = tested on: A549 NSCLC
[11] = tested on: 786-0 renal
[12] = tested on: HCC-2998 colon
[13] = tested on: CCRF-CEM leukemia
[14] = tested on: SR leukemia

Row | SMILES | TGI [1] | TGI [2] | TGI [3] | TGI [4] | TGI [5] | TGI [6] | TGI [7] | TGI [8] | TGI [9] | TGI [10] | TGI [11] | TGI [12] | TGI [13] | TGI [14] | GI50 [5] | GI50 [3] | GI50 [4] | GI50 [13] | GI50 [6] | GI50 [8]
1 | N=C(N)C(N=Nc1ccccc1)C(N)=O (stereo not given) | > 100 µM | > 100 µM | > 100 µM | > 100 µM | > 100 µM | > 100 µM | > 100 µM | > 100 µM | > 100 µM | > 100 µM | > 100 µM | > 100 µM | – | – | – | – | – | – | – | –
2 | CCCCNc1c(CN)cnc2cc(Cl)ccc12 | 43.1 µM | 29.5 µM | 31.6 µM | 37.2 µM | 3.92 µM | 35 µM | 32 µM | 42.3 µM | 21.5 µM | 41.5 µM | 40.2 µM | 9.63 µM | 18.7 µM | – | – | – | – | – | – | –
3 | CN(C)CCCNc1ncnc2nc[nH]c12 | > 100 µM | > 100 µM | > 100 µM | > 100 µM | – | > 100 µM | > 100 µM | – | > 100 µM | > 100 µM | > 100 µM | > 100 µM | > 100 µM | – | – | – | – | – | – | –
4 | O=c1[nH]/c(=C/c2ccc(OCc3ccccc3)cn2)c(=O)[nH]/c1=C/c1ccc(Cl)cc1 | > 100 µM | > 28.3 µM | > 100 µM | 2.68 µM | > 40.2 µM | 0.796 µM | > 100 µM | 25.2 µM | > 100 µM | > 100 µM | > 100 µM | > 100 µM | > 100 µM | 4.53 µM | – | – | – | – | – | –
5 | NC(=O)NO | > 2500 µM | 1880 µM | > 2500 µM | > 1220 µM | 182 µM | > 2500 µM | 2400 µM | 2310 µM | > 2500 µM | 2340 µM | 1770 µM | 1810 µM | 1060 µM | 1620 µM | 21 µM | – | – | – | – | –
6 | O=C(N/N=C/c1ccc([N+](=O)[O-])cc1)c1cccc2nc3ccccc3nc12 | > 100 µM | > 80.7 µM | > 100 µM | 73.6 µM | > 100 µM | > 100 µM | > 100 µM | > 100 µM | > 100 µM | > 100 µM | > 100 µM | – | > 100 µM | > 64.7 µM | – | – | – | – | – | –
7 | Cc1ccc2cc3c(ccc4ccccc43)c3c2c1CC3 | > 100 µM | > 100 µM | > 100 µM | > 100 µM | > 100 µM | > 100 µM | > 100 µM | > 100 µM | > 100 µM | > 100 µM | > 100 µM | > 100 µM | > 100 µM | > 100 µM | – | – | – | – | – | –
8 | C=CC(=O)N1CCN(c2nc(OC[C@@H]3CCCN3C)nc3c2CCN(c2cccc4cccc(C)c24)C3)C[C@@H]1CC#N | – | – | 3.17 µM | 4.53 µM | – | 3.19 µM | – | 2.31 µM | – | – | – | – | 2.78 µM | – | – | 1.68 µM | 1.71 µM | 0.475 µM | 1.7 µM | 1.09 µM
9 | CC(=O)Oc1ccc2c(C)cc(=O)oc2c1 | > 100 µM | > 100 µM | > 100 µM | > 100 µM | > 100 µM | > 100 µM | > 100 µM | > 100 µM | > 100 µM | > 100 µM | > 100 µM | > 100 µM | > 100 µM | > 100 µM | – | – | – | – | – | –
10 | COc1cc2nc(-c3cccs3)nc(N3C(c4ccc(O)cc4)=NNC(=O)c4ccccc43)c2cc1OC | 67.9 µM | 39.6 µM | > 100 µM | > 100 µM | – | 58.9 µM | 44.3 µM | 64 µM | 52.1 µM | > 100 µM | > 100 µM | 38.5 µM | > 100 µM | – | – | – | – | – | – | –
11 | Nc1ccc(C2NC(=O)Cc3c2ccc2ccccc32)cc1 (stereo not given) | > 100 µM | – | > 100 µM | > 100 µM | > 100 µM | > 100 µM | – | > 100 µM | > 100 µM | > 100 µM | – | > 100 µM | > 100 µM | > 100 µM | – | – | – | – | – | –
12 | COc1ccc(C2C(=O)C(Cl)N2Nc2nc(C)cc(=O)[nH]2)cc1OC (stereo not given) | – | > 100 µM | – | – | 37.6 µM | – | – | 52.7 µM | > 100 µM | > 100 µM | – | > 100 µM | 55.1 µM | > 100 µM | – | – | – | – | – | –
13 | O=C(O)CSCC(=O)O | > 100 µM | > 100 µM | – | > 100 µM | > 100 µM | > 100 µM | > 100 µM | > 100 µM | – | > 100 µM | > 100 µM | – | > 100 µM | > 100 µM | – | – | – | – | – | –
14 | CCOC(=O)c1sc2nc(SC)nc3c2c1NCN3c1ccc2c(c1)OCCCO2 | > 100 µM | 35.6 µM | 75.7 µM | 37 µM | > 100 µM | > 100 µM | > 100 µM | – | – | > 100 µM | 26.8 µM | > 100 µM | > 100 µM | > 100 µM | – | – | – | – | – | –
15 | O=C(O)C(O)Cc1ccccn1 (stereo not given) | > 100 µM | > 100 µM | > 100 µM | > 100 µM | > 100 µM | > 100 µM | > 100 µM | – | > 100 µM | > 100 µM | – | > 100 µM | > 100 µM | > 100 µM | – | – | – | – | – | –
16 | C(=C\c1nccs1)/c1cccc(/C=C/c2nccs2)n1 | > 50 µM | > 50 µM | > 50 µM | > 50 µM | > 50 µM | > 50 µM | > 50 µM | > 50 µM | > 50 µM | > 50 µM | > 50 µM | > 50 µM | > 50 µM | > 50 µM | – | – | – | – | – | –
17 | CC(=O)OC1COC(n2nc(/C=C/c3ccc(Cl)cc3)c(=O)n(/N=C/c3ccccc3)c2=S)C(OC(C)=O)C1OC(C)=O (stereo not given) | > 100 µM | > 100 µM | > 100 µM | > 100 µM | > 100 µM | > 100 µM | > 100 µM | > 100 µM | > 100 µM | > 100 µM | > 100 µM | > 100 µM | > 100 µM | > 100 µM | – | – | – | – | – | –
18 | FC(F)(F)C(C1=NC(C(F)(F)F)(C(F)(F)F)N=C(N2CCOCC2)O1)C(F)(F)F | 63.2 µM | 37 µM | > 100 µM | > 100 µM | 22 µM | 59.3 µM | 49.4 µM | > 100 µM | 38.9 µM | 62.8 µM | – | > 100 µM | 25.3 µM | 61.2 µM | – | – | – | – | – | –
19 | COc1ccc2oc(=O)cc(C)c2c1 | > 100 µM | > 100 µM | – | > 100 µM | > 100 µM | > 100 µM | > 100 µM | > 100 µM | > 100 µM | > 100 µM | > 100 µM | > 100 µM | > 100 µM | > 100 µM | – | – | – | – | – | –
20 | Cc1nc(Nc2ccc(F)cc2)c2sc(=S)n(-c3ccc(F)cc3)c2n1 | 35.6 µM | 25.1 µM | 40.2 µM | 37.7 µM | 74.1 µM | 22.7 µM | 37.3 µM | 29.6 µM | 27.5 µM | 29.5 µM | 21.6 µM | 24.7 µM | – | > 100 µM | – | – | – | – | – | –
21 | COc1ccc(C2C3CCc4ccccc4C3=NN2S(=O)(=O)c2ccc(Cl)cc2)cc1 (stereo not given) | > 100 µM | 58.4 µM | 16 µM | > 100 µM | 74.9 µM | 4.62 µM | 21.9 µM | – | 23.1 µM | > 100 µM | 66.6 µM | – | > 100 µM | 25.4 µM | – | – | – | – | – | –
22 | C=CCOC1OC(CS(=O)(=O)O)C(O)C(O)C1O (stereo not given) | > 100 µM | > 100 µM | > 100 µM | > 100 µM | > 100 µM | > 100 µM | > 100 µM | > 100 µM | > 100 µM | – | – | > 100 µM | – | > 100 µM | – | – | – | – | – | –
23 | COc1cccc(Nc2nc(-c3cccs3)nc3ccc(Br)cc23)c1 | > 100 µM | – | > 100 µM | > 100 µM | > 100 µM | > 100 µM | > 100 µM | – | > 100 µM | > 100 µM | > 100 µM | – | > 100 µM | > 100 µM | – | – | – | – | – | –
24 | O=C(c1ccccc1)[C@H]1Nc2ccc(Cl)cc2[C@H]2OCCC[C@@H]12 | – | 32.4 µM | – | – | – | – | – | – | 45.7 µM | – | – | 45.8 µM | – | 79.2 µM | – | – | – | – | – | –
25 | COc1ccccc1N1C(Cl)C(=O)C1c1c[nH]c2ccccc12 (stereo not given) | – | > 100 µM | > 100 µM | – | > 100 µM | – | – | > 100 µM | > 100 µM | > 100 µM | – | – | > 100 µM | > 100 µM | – | – | – | – | – | –
